Values quoted from earlier work, collected in patent US20220047541A1, “PHARMACEUTICAL COMPOSITIONS AND METHODS FOR TREATING PARKINSON'S DISEASE” (Pike Therapeutics, Inc., priority 2020, published 2022).

Key:
CB2 = CB2 (Homo sapiens, UniProt P34972); conditions: given as ×, fold or times
Chain of CB2 (P34972 whole entry, species assumed): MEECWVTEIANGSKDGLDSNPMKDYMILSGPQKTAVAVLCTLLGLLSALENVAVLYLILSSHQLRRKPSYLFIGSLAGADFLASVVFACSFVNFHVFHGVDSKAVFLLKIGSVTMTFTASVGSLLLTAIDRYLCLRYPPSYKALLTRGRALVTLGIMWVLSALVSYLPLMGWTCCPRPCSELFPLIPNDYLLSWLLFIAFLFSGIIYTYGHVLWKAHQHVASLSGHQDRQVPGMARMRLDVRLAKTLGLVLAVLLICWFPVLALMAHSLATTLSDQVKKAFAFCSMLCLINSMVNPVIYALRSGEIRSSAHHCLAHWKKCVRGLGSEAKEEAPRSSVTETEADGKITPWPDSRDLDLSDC

In the case of `CCCCCCC(C)(C)c1cc(O)c2c(c1)oc(=O)c1ccc(OC)cc12` [AM-1710], the “selectivity for CB2 over CB1” value (CB2) is listed as 54 fold.
For `CCCn1cc(C(=O)c2ccc(C)c3ccccc23)c2ccccc21` [JWH-120], the “selectivity for CB2 over CB1” value (CB2) is listed as 173 fold.
For `CCCn1c(C)c(C(=O)c2ccc(C)c3ccccc23)c2ccccc21` [JWH-148], the “selectivity for CB2 over CB1” value (CB2) is given as “more than 8 fold”.
In the case of `CCCCCCC(C)(C)c1cc(OC)c2c(c1)OC(C)(C)C1CCC(O)CC21` (stereo not drawn) [JWH-350, 11-nor-1-methoxy-3-(1′,1′-dimethylheptyl)-9α-hydroxyhexahydrocannabinol], the “selectivity for CB2 over CB1” value (CB2) is listed as 33 fold.
For `N[C@@H](Cc1ccc(O)c(O)c1)C(=O)O` [Levodopa, L-3,4-dihydroxyphenylalanine (S)-2-amino-3-(3,4-dihydroxyphenyl)propanoic acid], the solubility in water is given as “slightly soluble”.
